Data published in patent US20110104177A1, “HISTONE DEACETYLASE INHIBITORS, COMBINATION THERAPIES AND METHODS OF USE” (THE JOHNS HOPKINS UNIVERSITY, priority 2006, published 2011).

Assays:
[1] = system: SFRP1, SFRP2, MLH1, CRBP1, E-cadherin genes in RKO cells; assay: RT-PCR re-expression of silenced tumor suppressor genes in RKO cells; type: cell-based, human; settings: RKO cells; for SFRP1 RT-PCR specific band: doses of 20 and 50 μM, 24 or 48 hours
Experimental: To inhibit any residual SIRT1 protein, remaining RNAi-expressing cells were treated with 700 μM SPT and control samples were treated with DMSO for 24 hours. […] RKO cells were also treated with 0.5 μM Aza (24 hours), and samples were analyzed as described in FIG. 1A; RT-PCR was performed with intron-spanning primers specific for the two genes. GAPDH was also analyzed as a control. […] Control samples in which no reverse transcriptase was added were analyzed separately, and all were negative for amplification of the indicated genes. […] The level of TSG re-expression induced by Aza treatment or SIRT1 inhibition as described in FIG. 4(A) was compared to levels of expression in HCT116 cells in which the TSGs are basally expressed.
(§1) Cell culture and retroviral infection. MDA-MB-231, MCF7, HCT116, SW480 RKO, and Phoenix cells (ATCC, Rockville, Md., United States) were cultured in Dulbecco's modified Eagle's medium supplemented with 10% fetal bovine serum and 1% penicillin/streptomycin (Invitrogen, Carlsbad, Calif., United States). Retroviral infection was performed using either single or multiple rounds of infection. Briefly, Phoenix cells were transfected with either pBabe, pBabe-SIRT1H363Y, pSUPERretro, pSUPERretro-SIRT1-RNAi-1-3 (NM_012238 positions 410, 589, and 1091; Oligo Engine, Seattle, Wash., United States) using Lipofectamine 2000 (Invitrogen). After 48 h of transfection, the medium containing retrovirus was collected, filtered, and supplemented with Polybrene prior to infection of target cells (MDA-MB-231, MCF7, or HCT116). Infected cells were either harvested 24-48 hours later or subjected to selection with 2-3 μg/ml puromycin for a week prior to harvest and analysis.
(§2) RNA and protein preparation and analysis. Total RNA was extracted (Invitrogen) according to the manufacturer's instructions and subjected to reverse transcription followed by both quantitative real-time and semi-quantitative polymerase chain reaction. For quantitative real-time analyses, the QuantiTect SYBR Green PCR kit (Qiagen, Valencia, Calif., United States) was used and the amplification conditions consisted of an initial 10-minutes denaturation step at 95° C., followed by 40 cycles of denaturation at 95° C. for 15 s and annealing and extension for 30 seconds and 60 seconds, respectively. A BioRad iCycler was used (BioRad, Hercules, Calif., United States), and for quantitation the comparative cycle threshold (Ct) method was used, normalizing the Ct values for the indicated gene to the Ct values of GAPDH relative to a control sample. For conventional PCR, at least two independent sets of intron-spanning primers were used for the analysis of multiple genes, such as CRBP1, (NM_002899), E-cadherin, (L34545), SFRP1, (BC036503), SFRP2, (BC008666), and Gata-4 (L34357). For Western blots, cells stably expressing RNAi constructs were harvested in 50 mM Tris-HCl, 1% NP-40, 0.25% sodium deoxycholate, 150 mM NaCl, 50 mM sodium fluoride, 1 mM dithiothreitol, 1 mM AEBSF, 1× Complete protease inhibitor cocktail (Roche, Basel, Switzerland). Protein concentrations were measured by BCA (Pierce Biotechnology, Rockford, Ill., United States). […] On the same blot, β-actin (Sigma, St. Louis, Mo., United States) was probed to ensure equal loading.
(§3) The results from experiments performed in RKO cells are shown in FIG. 7 which presents RT-PCR results for SFRP1. […] The expression seemed stronger than for 300 μM splitomycin (Spt) or 20 mM nicotinamide (Nia) when these latter two drugs were used alone or in combination, but not as strong as the expression induced by 1 μM of the DNA demethylating agent, deoxy-aza-cytidine (Aza). […] Experiments were carried out as essentially described above.

SIRT1 [2] = target: T1, SIRT1 (Homo sapiens, UniProt Q96EB6); assay: Activity against the SIRT1 enzyme / SIRT1 deacetylase activity; type: biochemical
T1 sequence (Q96EB6 1-747): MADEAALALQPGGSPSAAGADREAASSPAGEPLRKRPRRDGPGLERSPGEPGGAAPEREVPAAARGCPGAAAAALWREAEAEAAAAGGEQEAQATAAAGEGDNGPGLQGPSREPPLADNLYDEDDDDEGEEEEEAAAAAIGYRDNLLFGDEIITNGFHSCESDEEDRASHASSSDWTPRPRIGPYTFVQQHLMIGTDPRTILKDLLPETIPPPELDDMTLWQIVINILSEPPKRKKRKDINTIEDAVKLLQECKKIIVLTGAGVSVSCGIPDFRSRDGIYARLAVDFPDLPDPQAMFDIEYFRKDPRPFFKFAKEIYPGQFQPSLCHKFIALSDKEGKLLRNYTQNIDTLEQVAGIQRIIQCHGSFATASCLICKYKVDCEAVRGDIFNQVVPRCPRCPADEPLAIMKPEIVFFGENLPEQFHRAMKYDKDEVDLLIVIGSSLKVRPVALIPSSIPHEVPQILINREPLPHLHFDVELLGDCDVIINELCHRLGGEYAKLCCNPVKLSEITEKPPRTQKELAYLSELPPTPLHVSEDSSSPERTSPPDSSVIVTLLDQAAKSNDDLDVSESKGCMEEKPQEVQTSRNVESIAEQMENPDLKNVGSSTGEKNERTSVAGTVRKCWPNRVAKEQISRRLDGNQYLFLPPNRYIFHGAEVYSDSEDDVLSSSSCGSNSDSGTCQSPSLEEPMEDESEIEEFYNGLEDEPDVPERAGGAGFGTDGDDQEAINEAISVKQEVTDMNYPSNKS

[3] = system: SFRP1 and 2 genes in human breast cancer cells (line H231); assay: Re-activation of SFRP1 and 2 genes in breast cancer cells (line H231); type: cell-based
Experimental: This has been accomplished for the SFRP1 and 2 genes in human breast cancer cells (line H231) and for SFRP1 in human colon cancer cells (line RKO).
as §3

[4] = system: SFRP1, SFRP2, E-cadherin, CRBP1 genes in MDA-MB-231 cells; assay: RT-PCR re-expression of silenced tumor suppressor genes in MDA-MB-231 cells; type: cell-based, human; settings: MDA-MB-231 cells
Experimental: The panels of FIG. 2 are as follows. […] MDA-MB-231 cells were treated with 15 mM NIA or 300 μM SPT for 21 hours, RNA was isolated, and RT-PCR was performed with intron-spanning primers specific for the indicated genes. Control samples in which no reverse transcriptase was added were analyzed separately, and all were negative for amplification of the indicated genes. […] MDA-MB-231 cells were treated with either 50 nM Aza (+), 100 μM SPT (+) or with both Aza and SPT (++), and 34 hours later, RT-PCR was performed for the indicated genes as described in FIG. 2(A). […] MDA-MB-231 cells were treated with either 0, 50, 100, or 120 μM SPT alone for 34 hours, or the treatment was followed by treatment with 300 nM TSA for 3 hours prior to RNA isolation and RT-PCR analysis. […] MDA-MB-231 cells were infected with low titers of virus for shRNA specific for SIRT1. Aza (100 nM) was added 24 hours prior to RNA isolation, and RT-PCR analysis was performed for the genes SFRP 1, SFRP2, and GAPDH as described in FIG. 2(A). […] As shown in the left panel, MDA-MB-231 cells were infected with a control (vec) or mutant SIRT1 virus (HY), and RT-PCR was performed as described in FIG. 2(A). MDA-MB-231 cells were infected with low titers of pBabe or pBabe-SIRT1H363Y retrovirus and subsequently treated with 100 nM Aza for 24 hours or with 300 nM TSA for 3 hours prior to harvest, and RT-PCR was performed.
as §1, §2

[5] = system: SFRP1 and SFRP2 genes in MCF7 cells; assay: RT-PCR re-expression of silenced tumor suppressor genes in MCF7 cells; type: cell-based, human
Experimental: as §1, §2

SIRT1 [6] = assay: Western blot of SIRT1 protein after retroviral shRNA infection; type: cell-based, human; settings: MDA-MB-231 cells
Experimental: as §1, §2

[7] = system: SFRP1, SFRP2, GATA4 promoter methylation in MDA-MB-231 cells; assay: Promoter DNA methylation by bisulfite sequencing and MSP; type: cell-based, human; settings: MDA-MB-231 cells stably infected
Description: The panels of FIG. 3 are as follows. […] Parallel samples analyzed in FIG. 1D were subjected to bisulfite sequencing of the SFRP1 promoter from MDA-MB-231 cells stably infected with control vector or RNAi-2 or RNAi-3 retrovirus. Open circles indicate unmethylated cytosines, and closed circles indicate methylated cytosines. Numbers at the bottom show the position of cytosines relative to the transcription start site, which is at position 0, and those with a minus sign (−) are upstream from this start site. The region sequenced encompasses the CpG island in which methylation status correlates with gene expression status. […] From left to right: (−) PCR Ctrl indicates H2O only; (−) BS ctrl indicates bisulfite-treated H20; (+) M ctrl indicates the cell line in which SFRP1 is partially methylated and SFRP2 and GATA4 are fully methylated; and (+) U ctrl indicates the Tera-2 cell line in which each gene is unmethylated. All remaining lanes are for MDA-MB-231. From left to right: Aza indicates 1 μM Aza (24 hours) treatment; Ctrl indicates empty vector infection; RNAi-2 indicates shRNA-2 infection alone; RNAi-3 indicates shRNA-3 infection alone; Aza indicates 1 μM Aza (24 hours treatment of control cells; Ctrl indicates empty vector infection+vehicle; RNAi-2 indicates shRNA-2 infection+5 mM NIA treatment; and RNAi-3 indicates shRNA-3 infection+5 mM NIA treatment.
MSP and bisulfite sequencing. […]

NC(=O)[C@@H]1CCCc2c1[nH]c1ccc(Cl)cc21 [(R)-6-chloro-2,3,4,9-tetrahydro-1H-carbazole-1-carboxamide]
SFRP1 RT-PCR specific band [1]: produces no specific band | inhibition of SIRT1 deactylase activity (SIRT1 [2]): inactive

NC(=O)[C@H]1CCCc2c1[nH]c1ccc(Cl)cc21 [(S)-6-chloro-2,3,4,9-tetrahydro-1H-carbazole-1-carboxamide]
transcriptional re-activation of SFRP1 and 2 genes [3]: the same effects have been achieved | SFRP1 expression compared with 1 μM deoxy-aza-cytidine (Aza) ([1]; RT-PCR): not as strong | SFRP1 expression compared with 300 μM splitomycin or 20 mM nicotinamide, alone or in combination ([1]; RT-PCR): stronger | SFRP1 RT-PCR specific band [1]: produce the band at both time points | inhibition of SIRT1 deactylase activity (SIRT1 [2]): potent inhibition

NC(=O)c1cccnc1 [NIA, nicotinamide, reference compound]
re-expression of epigenetically silenced, hypermethylated TSGs incl. CRBP1 ([4]; 15 mM NIA or 300 μM SPT for 21 hours): could cause the re-expression | re-expression of epigenetically silenced, hypermethylated TSGs ([5]; sirtuin inhibitors, data not shown): could cause the re-expression

RNAi-2: shRNA targeting SIRT1 mRNA, sequence GGCCACGGATAGGTCCATA, NM_012238 position 589
reduction of SIRT1 protein (knockdown) (SIRT1 [6]): very effective in reducing protein levels | SFRP1 promoter methylation profile (bisulfite sequencing) [7]: without changes in the methylation profile | gene re-expression of SFRP1, SFRP2 and E-cadherin ([4]; shRNA retroviral infection, RT-PCR): led to gene re-expression

B1: SIRT1H363Y: catalytically inactive, dominant negative inhibitor of SIRT1, expressed through retroviral infection (protein, UniProt Q96EB6 2-747, looked up, variant H363Y)
NAD-dependent protein …: ADEAALALQPGGSPSAAGADREAASSPAGEPLRKRPRRDGPGLERSPGEPGGAAPEREVPAAARGCPGAAAAALWREAEAEAAAAGGEQEAQATAAAGEGDNGPGLQGPSREPPLADNLYDEDDDDEGEEEEEAAAAAIGYRDNLLFGDEIITNGFHSCESDEEDRASHASSSDWTPRPRIGPYTFVQQHLMIGTDPRTILKDLLPETIPPPELDDMTLWQIVINILSEPPKRKKRKDINTIEDAVKLLQECKKIIVLTGAGVSVSCGIPDFRSRDGIYARLAVDFPDLPDPQAMFDIEYFRKDPRPFFKFAKEIYPGQFQPSLCHKFIALSDKEGKLLRNYTQNIDTLEQVAGIQRIIQCYGSFATASCLICKYKVDCEAVRGDIFNQVVPRCPRCPADEPLAIMKPEIVFFGENLPEQFHRAMKYDKDEVDLLIVIGSSLKVRPVALIPSSIPHEVPQILINREPLPHLHFDVELLGDCDVIINELCHRLGGEYAKLCCNPVKLSEITEKPPRTQKELAYLSELPPTPLHVSEDSSSPERTSPPDSSVIVTLLDQAAKSNDDLDVSESKGCMEEKPQEVQTSRNVESIAEQMENPDLKNVGSSTGEKNERTSVAGTVRKCWPNRVAKEQISRRLDGNQYLFLPPNRYIFHGAEVYSDSEDDVLSSSSCGSNSDSGTCQSPSLEEPMEDESEIEEFYNGLEDEPDVPERAGGAGFGTDGDDQEAINEAISVKQEVTDMNYPSNKS
re-expression of SFRP1 and SFRP2 ([4]; dominant negative expressed through retroviral infection): re-expression of SFRP1 and SFRP2 | reactivation of SFRP1 (GATA-5 and SFRP2 data not shown), combined with Aza ([4]; low titers of retrovirus, 100 nM Aza for 24 hours): synergistic reactivation of SFRP1 | reactivation of SFRP1 (GATA-5 and SFRP2 data not shown), combined with TSA ([4]; low titers of retrovirus, 300 nM TSA for 3 hours): synergistic reactivation of SFRP1 | gene re-expression of SFRP1 and SFRP2 ([5]; retroviral infection, RT-PCR): re-expression of SFRP1 and SFRP2
